The text below walks through data of paper PMC9855386, “Obtaining a Monoclonal Antibody against a Novel Prometryn-Like Hapten and Characterization of Its Selectivity for Triazine Herbicides” (Biosensors, 2022).

SMILES strings stand for the structures. Where only a bound is given, the exact number is not on record here.

This assay concerns 7D4 mAb (mouse monoclonal anti-prometryn antibody). Nature of the assay: ic-ELISA cross-reactivity of the 7D4 mAb with triazines. The format is binding. As to conditions: for IC50: ic-ELISA, analyte 1000-15.625 and 0 ng/mL; for Cross-Reactivity: relative to prometryn = 100%. On the procedure:
The ic-ELISA method was used to screen the best-performing fusion mouse sera. They were used to establish the standard curve of antibodies by detecting the supernatant of positive cells. The buffer required for ic-ELISA was the same as previously reported. The specific steps of the operation are as follows: (1) The coated antigen was added to the microplate by diluting it with the required coating solutions (CBS, pH 9.6, 0.05 mol/L). Each well contained 100 µL, which was incubated at 37 °C for three h before being washed three times with washing buffer (PBST, PBS containing 0.1% Tween-20). (2) With sample dilution buffer (PBSTG, PBST containing 0.1% gelatin), the standard prometryn sample and the antiserum/antibody from mice were diluted to the required concentration. The microplate was incubated for 30 min at 37 °C with 50 µL of diluted antiserum or antibody and standard samples of various concentrations. PBST was used three times to wash the dishes. (3) Then, 100 µL of PBSTG-diluent IgG HRP (labeled goat anti-mouse IgG with HRP) was added to each well. After 30 min at 37 °C, the plate was cleaned three times with PBST. (4) Each well was incubated for 15 min in the dark at 25 °C with 100 µL of TMB color developing solution. To stop the reaction, 50 µL of the hydrochloric acid solution was added to each well. The absorbance at OD450 nm was measured with a TECAN Infinite M200 PRO microplate reader from Männedorf, Switzerland.
The ic-ELISA method was used to determine the ideal antibody and antigen mix. The coating antigen and antibody concentration used in the experiment was 1 mg/mL. The dilution multiples of the coating were 1 × 10^3, 2 × 10^3, 4 × 10^3, and 8 × 10^3. The prometryn standard was 1000 ng/mL. The best concentration combination of antigen and antibody was selected to establish the standard curve of the antibody. Prometryn standards were diluted to 1000, 500, 250, 125, 62.5, 31.25, 15.625, 7.8125, 3.90625, and 0 ng/mL, with PBSTG for subsequent ic-ELISA experiments. The standard curve was determined by ic-ELISA. […] Each measured OD value in the curve is the average of three independent repeats. The 7D4 mAb’s inhibition rate was well linearly correlated with the prometryn concentration. […] The 7D4 mAb type was identified as IgG1 using a mouse antibody isotyping kit from Sigma®, St. Louis, MO, USA.
Eleven triazine herbicides were selected to determine their cross-reactivity with 7D4 mAb. […] The cross-reaction rate with the other seven triazines was less than 1%. The hybridoma cell line 7D4 screened in this study can specifically recognize prometryn. […] The cross-reaction rate may vary depending on the immunoassay format and the competitive hapten preparation used.
Background: ELISA stands for enzyme-linked immunosorbent assay.

As usually defined, the IC50 is the concentration needed to halve the response being measured. As to `CCNc1nc(NC(C)C)nc(SC)n1` [Ametryn], the half-inhibitory concentration (IC50) was 0.011221 µg/mL and the Cross-Reactivity was determined as 34.77%. Also, under “listed as ametryn”, the Cross-Reactivity turned out to be 34.77%.
Regarding `CCNc1nc(NC(C)(C)C)nc(SC)n1` [Terbutryn], the IC50 was more than 1 µg/mL and the Cross-Reactivity is given as less than 0.39%.
On to `CCNc1nc(Cl)nc(NC(C)C)n1` [Atrazine], for which the IC50 is more than 1 µg/mL and the Cross-Reactivity was less than 0.39%.
As to `COc1nc(NC(C)C)nc(NC(C)C)n1` [Prometon], the IC50 is more than 1 µg/mL and the Cross-Reactivity is on record as less than 0.39%.
In the case of `CNc1nc(NC(C)C)nc(SC)n1` [Desmetryn], the IC50 was 0.021566 µg/mL and the Cross-Reactivity amounted to 18.09%. For the same molecule, the Cross-Reactivity (listed as desmetryn) was 18.09%.
Regarding `CCNc1nc(NCC)nc(SC)n1` [Simetryn], the IC50 was more than 1 µg/mL and the Cross-Reactivity is less than 0.39%.
For `CC(C)Nc1nc(Cl)nc(NC(C)C)n1` [Propazine], in that order: 0.398011 µg/mL and 0.98%.
As for `CCNc1nc(NC(C)(C)C)nc(OC)n1` [Terbumeton], the IC50 is 0.051091 µg/mL and the Cross-Reactivity came out at 7.64%. For the same molecule, the Cross-Reactivity (listed as terbumeton) amounted to 7.64%.
On to `CCNc1nc(Cl)nc(NCC)n1` [Simazine], for which the IC50 was more than 1 µg/mL and the Cross-Reactivity is recorded as less than 0.39%.
The corresponding values for `CCNc1nc(Cl)nc(NC(C)(C)C)n1` [Terbuthylazine] are more than 1 µg/mL and less than 0.39%.
